Entries after “also recorded” stand apart in the source; their conditions may differ. Read-outs that look alike come from different tables or passages of the source.
Assays:
[1] = tested on: bortezomib-treated Wistar rats; assay: Bortezomib study, therapeutic paradigm; details: for Allodynia / Body Weight / DRG/nerve pathology / IENFD / NCS: Bortezomib Therapeutic setting, 0.2 mg/kg (i.v.) 3 times/week for 8 weeks
[2] = tested on: bortezomib-treated Wistar rats; assay: Bortezomib study, prevention paradigm; format: in vivo; details: for Allodynia / Body Weight / DRG/nerve pathology / IENFD / NCS: Bortezomib Preventive setting, 0.2 mg/kg (i.v.) 3 times/week for 8 weeks
human GHSR1 receptor = molecular target: T1, human GHSR1 receptor (Homo sapiens, UniProt Q92847); assay: [125I]Ghrelin binding assay on membranes from BHK cells; details: 1 nM [125I]Ghrelin, BHK cell membranes
T1 construct: expressed in transfected cells; host or cells: BHK cells (membrane preparation)
T1 sequence (Q92847 whole entry): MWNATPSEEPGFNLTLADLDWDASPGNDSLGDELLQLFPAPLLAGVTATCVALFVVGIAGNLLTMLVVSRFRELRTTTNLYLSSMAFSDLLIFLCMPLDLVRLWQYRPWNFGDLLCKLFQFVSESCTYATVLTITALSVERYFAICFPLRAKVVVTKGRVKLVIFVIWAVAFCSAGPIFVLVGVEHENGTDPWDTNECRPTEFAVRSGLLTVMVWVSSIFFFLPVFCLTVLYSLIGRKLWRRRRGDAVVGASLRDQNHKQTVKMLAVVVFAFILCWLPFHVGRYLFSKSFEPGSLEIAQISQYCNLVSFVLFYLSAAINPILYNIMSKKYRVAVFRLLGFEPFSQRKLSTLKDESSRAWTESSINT
Procedure: In additional binding study, compound A was dissolved in DMSO and diluted with water in different range of concentrations. Membrane protein prepared from BHK cells stably expressing human GHSR1 receptor were used for binding assay. The membrane was diluted in assay buffer to yield 20 μg/well in 120 μl. The binding assay was set up in 96 well plate as following: 120 μl [^125I]Ghrelin (final concentration 1 nM) and 15 μl compound A (10×) diluted in the assay buffer. The reaction mixture was incubated at room temperature for 30 minutes before terminating by quick filtration onto GF/B filtration plate pre-soaked in 0.3% PEI using cell harvester (Perkin Elmer). The filter was washed three times and dried at 37° overnight. The radioactivity bound to filter membrane was measured with MicroBeta Trilux (Perkin Elmer).

[3] = mouse, in vivo
Procedure: Sixty female Balb/C mice weighing 20-25 g at start of experiment were used and divided into 4 groups of 15 mice each. […] Body weights were measured daily, immediately prior to the initiation of dosing.

human GHSR1a receptor = molecular target: T2, human GHSR1a receptor (Homo sapiens, UniProt Q92847); assay: FLIPR assay in HEK293 cells stably expressing human GHSR1a receptor; format: cell-based; details: read-out: EC50, agonist activity in FLIPR assay
T2 construct: expressed in transfected cells; host or cells: HEK293
T2 sequence (Q92847 whole entry): as above
Procedure: HEK293 cells stably expressing human GHSR1a receptor were used in FLIPR assay. Cells were maintained under standard procedures. One day prior the test, cells were seeded at a density of 1.5×10^4/well in a Matrigel® coated 384-well plate with 30 μl of complete DMEM medium, and incubated at 37° C. in 5% CO2 for 22-26 hrs. On the test day, 4× loading dye was added into each well (10 μl per well for 384 well plates). Assay plates were incubated at 37° C. in the dark for 30 minutes. Then the dye content was removed by centrifugation at 300 rpm for 30 s. 40 μL HBSS/Hepes with 1 mM probenicid was added with Platemate Matrix (low speed setting, Thermo). The plate was then placed in FLIPR Tetra (Molecular Device) and 5× working concentrations of agonists were added by FLIPR. Fluorescence signal was detected with FLIPR at room temperature according to standard settings.

[4] = Procedure: The stability of Compound A was followed by HPLC analysis. […] Additionally a stability study was performed over 3 years on industrial batch of dried material.
[5] = rat, in vivo
[6] = therapeutic setting, all doses, monohydrochloride salt
[7] = crude wet material, batch #01, 2-8° C., t = 0
[8] = crude wet material, batch #01, 2-8° C., t = 8 days
[9] = crude wet material, batch #01, 2-8° C., t = 30 days
[10] = crude wet material, batch #02, rt under air, t = 0
[11] = crude wet material, batch #02, rt under air, t = 24 days
[12] = during drying at 60° C., t = 74 hours

Which results are given for “3-(1-(2,3-dichloro-4-methoxyphenyl) ethyl)-1-methyl-1-(1,3,3-trimethylpiperidin-4-yl)urea monohydrochloride salt [Compound A]”?
Allodynia ([1]; Compound A dose 3): +; Body Weight ([1]; Compound A dose 3): +/−; DRG/nerve pathology ([1]; Compound A dose 3): −; IENFD ([1]; Compound A dose 3): −; NCS ([1]; Compound A dose 3): +/−; Allodynia ([1]; Compound A dose 10): +; Body Weight ([1]; Compound A dose 10): +/−; DRG/nerve pathology ([1]; Compound A dose 10): +/−; IENFD ([1]; Compound A dose 10): −; NCS ([1]; Compound A dose 10): +/−; Allodynia ([1]; Compound A dose 30): +; Body Weight ([1]; Compound A dose 30): +/−; DRG/nerve pathology ([1]; Compound A dose 30): +/−; IENFD ([1]; Compound A dose 30): −; NCS ([1]; Compound A dose 30): −; protective effects on DRG/nerve pathology ([1]; therapeutic setting): not present; allodynia vs CTRL (mechanical threshold) ([1]; therapeutic setting, after 5 weeks and at the end of treatment, all doses): protected; caudal NCV and potential amplitude vs CTRL [1, 6]: statistically significant reduction; digital NCV vs CTRL [1, 6]: statistically significant reduction only the animals treated with bortezomib alone; also recorded: Only the animals treated with bortezomib alone showed a significant reduction; body weight vs. CTRL and bortezomib groups ([1]; therapeutic setting, end of treatment, Compound A 30): significant increase in body weight; body weight vs. CTRL and bortezomib groups ([1]; therapeutic setting, following 10 days co-treatment): significant increase of body weight; digital potential amplitude vs CTRL ([1]; therapeutic setting, highest dose of Compound A): reduction in potential amplitude; Allodynia ([2]; Compound A dose 3): +; Body Weight ([2]; Compound A dose 3): +/−; DRG/nerve pathology ([2]; Compound A dose 3): −; IENFD ([2]; Compound A dose 3): +; NCS ([2]; Compound A dose 3): −; Allodynia ([2]; Compound A dose 10): +; Body Weight ([2]; Compound A dose 10): +/−; DRG/nerve pathology ([2]; Compound A dose 10): +/−; IENFD ([2]; Compound A dose 10): +; NCS ([2]; Compound A dose 10): −; Allodynia ([2]; Compound A dose 30): +; Body Weight ([2]; Compound A dose 30): +/−; DRG/nerve pathology ([2]; Compound A dose 30): +/−; IENFD ([2]; Compound A dose 30): +; NCS ([2]; Compound A dose 30): +/−; mild axonal changes in the sciatic nerve ([2]; different doses): did not alter these changes; DRG sensory neuron degeneration and satellite cell vacuolization ([2]; preventive setting): incomplete protection; digital NCV vs CTRL ([2]; preventive setting, Compound A 30 mg/kg): no alteration; digital NCV vs CTRL ([2]; preventive setting, Compound A 3 and 10 mg/kg): statistically significant reduction; bortezomib-induced reduction in IENFD ([2]; preventive setting, all doses): significantly prevented; allodynia vs CTRL (mechanical threshold) ([2]; preventive setting, all doses, end of treatment): did not show allodynia; caudal NCV and caudal potential amplitude vs CTRL ([2]; preventive setting, all doses, monohydrochloride salt): statistically significant reduction; digital potential amplitude vs CTRL ([2]; preventive setting, all groups, end of treatment): No changes; caudal nerve pathological changes ([2]; preventive setting, different doses): mild, not dose-dependent reduction in these pathological changes; body weight difference vs. CTRL and bortezomib groups ([2]; preventive study, at the end of treatment): not significant; body weight vs. CTRL and bortezomib groups ([2]; preventive study, different doses, first few weeks until day 21): significant increase in body weight; Ki (human GHSR1 receptor): 1.42 ± 0.35 nM; tissue penetration index (ratio of tissue/plasma) in DRG [3]: 18-19 fold; tissue penetration index (ratio of tissue/plasma) in SN [3]: 9-12 fold; Tissue penetration index (DRG/plasma ratio) ([3]; 10 mg/kg): 17.6; Tissue penetration index (SN/plasma ratio) ([3]; 10 mg/kg): 8.9; Tissue penetration index (DRG/plasma ratio) ([3]; 30 mg/kg): 18.9; Tissue penetration index (SN/plasma ratio) ([3]; 30 mg/kg): 12.0; AUC0-∞ in sciatic nerve and DRG relative to plasma ([3]; po, 30 mg/kg): 3-4 fold; terminal half-life in plasma ([3]; po, 30 mg/kg): approximately 1 h; terminal half-life in sciatic nerve ([3]; po, 30 mg/kg): approximately 4.7 h; EC50 (human GHSR1a receptor): 1.25 ± 0.42 nM; Compound A, HPLC results [4, 7]: 99.60%; Impurity RRT 0.97, HPLC results [4, 7]: 0.40%; Compound A, HPLC results [4, 8]: 99.70%; Impurity RRT 0.97, HPLC results [4, 8]: 0.29%; Compound A, HPLC results [4, 9]: 99.75%; Impurity RRT 0.97, HPLC results [4, 9]: 0.25%; Compound A, HPLC results [4, 10]: 99.74%; Impurity RRT 0.97, HPLC results [4, 10]: 0.24%; Compound A, HPLC results [4, 11]: 99.73%; Impurity RRT 0.97, HPLC results [4, 11]: 0.27%; Compound A, HPLC results ([4]; during drying at 60° C., t = 0): 99.83%; Impurity RRT 0.97, HPLC results ([4]; during drying at 60° C., t = 0): 0.17%; Compound A, HPLC results [4, 12]: 99.78%; Impurity RRT 0.97, HPLC results [4, 12]: 0.17%; F [5]: 70.6%; 2 hr brain concentration ([5]; iv): 172. ng · g; 2 hr plasma concentration ([5]; iv): 119.3 ng/mL; AUC (0-t) ([5]; iv, 3 mg/kg): 0.7015 µg·h/mL; Cmax ([5]; iv, 3 mg/kg): 0.4684 µg/mL; T1/2 z ([5]; iv, 3 mg/kg): 1.6 h; Vz/F ([5]; iv, 3 mg/kg): 9.9 L/kg; AUC (0-t) ([5]; po, 3 mg/kg): 0.4953 µg·h/mL; Cmax ([5]; po, 3 mg/kg): 0.0586 µg/mL; T1/2 z ([5]; po, 3 mg/kg): 12.7 h; Vz/F ([5]; po, 3 mg/kg): 38.6 L/kg; tmax ([5]; po, 3 mg/kg): 3.3 h

From patent US12005056B2, “Centrally-active ghrelin agonist and medical uses thereof” (Helsinn Healthcare SA, priority 2018, dated 2024)
